Molecular target: T1, bacteriophage T4 DNA polymerase (Enterobacteria phage T4, UniProt P04415)
T1 construct: made in house
T1 sequence (P04415 1-898): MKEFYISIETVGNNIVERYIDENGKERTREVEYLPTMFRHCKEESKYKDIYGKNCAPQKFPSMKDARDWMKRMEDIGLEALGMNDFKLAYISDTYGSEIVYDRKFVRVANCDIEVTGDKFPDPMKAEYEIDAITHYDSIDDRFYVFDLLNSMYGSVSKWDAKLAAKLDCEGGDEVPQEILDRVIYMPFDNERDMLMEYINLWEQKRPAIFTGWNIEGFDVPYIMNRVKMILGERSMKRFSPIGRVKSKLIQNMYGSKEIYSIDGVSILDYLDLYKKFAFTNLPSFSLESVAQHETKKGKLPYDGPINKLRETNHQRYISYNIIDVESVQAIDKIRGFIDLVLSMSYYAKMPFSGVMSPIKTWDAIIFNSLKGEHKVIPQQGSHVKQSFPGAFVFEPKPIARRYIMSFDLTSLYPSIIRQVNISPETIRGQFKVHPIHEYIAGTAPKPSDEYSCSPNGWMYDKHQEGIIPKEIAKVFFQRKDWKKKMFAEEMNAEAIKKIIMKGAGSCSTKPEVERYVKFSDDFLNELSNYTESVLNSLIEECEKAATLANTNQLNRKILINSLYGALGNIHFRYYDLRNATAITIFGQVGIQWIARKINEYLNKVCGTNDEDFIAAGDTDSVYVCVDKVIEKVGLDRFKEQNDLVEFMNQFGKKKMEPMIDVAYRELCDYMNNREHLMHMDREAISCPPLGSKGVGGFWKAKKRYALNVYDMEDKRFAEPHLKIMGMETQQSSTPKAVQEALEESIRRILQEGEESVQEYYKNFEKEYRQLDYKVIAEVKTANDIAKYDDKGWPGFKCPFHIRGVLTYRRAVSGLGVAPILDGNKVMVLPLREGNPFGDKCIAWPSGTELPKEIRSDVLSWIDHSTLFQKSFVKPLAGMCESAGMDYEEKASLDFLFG
Test: Counter-screen against bacteriophage T4 DNA polymerase
Type: biochemical
Conditions: for % inhibition T4 10' 2.5 / % inhibition T4 10' 5 / % inhibition T4 10' 10 / % inhibition T4 10' 20 / % inhibition T4 10' 40 / % inhibition T4 10' 80: read at 10'; for % inhibition T4 70' 2.5 / % inhibition T4 70' 5 / % inhibition T4 70' 10 / % inhibition T4 70' 20 / % inhibition T4 70' 40 / % inhibition T4 70' 80: read at 70'; for % inhibition T4 130' 2.5 / % inhibition T4 130' 5 / % inhibition T4 130' 10 / % inhibition T4 130' 20 / % inhibition T4 130' 40 / % inhibition T4 130' 80: read at 130'; for % inhibition T4 40' 2.5 / % inhibition T4 40' 5 / % inhibition T4 40' 10 / % inhibition T4 40' 20 / % inhibition T4 40' 40 / % inhibition T4 40' 80: read at 40'; for % inhibition T4 90' 2.5 / % inhibition T4 90' 5 / % inhibition T4 90' 10 / % inhibition T4 90' 20 / % inhibition T4 90' 40 / % inhibition T4 90' 80: read at 90'; for % inhibition T4 180' 2.5 / % inhibition T4 180' 5 / % inhibition T4 180' 10 / % inhibition T4 180' 20 / % inhibition T4 180' 40 / % inhibition T4 180' 80: read at 180'
Method in brief: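 IC50 values come from dose-response testing of each compound against T4 DNA polymerase. This B-family polymerase was purified in-house and used as the counter-screen.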

## CC(NC(=O)Cc1cc(=O)[nH]c(SCc2cccc(Cl)c2)n1)c1ccccc1 (centres unmarked) [Molecule 67, O=C(NC(c1ccccc1)C)Cc1nc(SCc2cccc(c2)Cl)[nH]c(=O)c1]
DRC-2, concentration 10
  % inhibition T4 10': 19%
  % inhibition T4 40': 19%
  % inhibition T4 90': 18%
DRC-2, concentration 20
  % inhibition T4 10': 18%
  % inhibition T4 40': 19%
  % inhibition T4 90': 18%
DRC-2, concentration 80
  % inhibition T4 10': 31%
DRC-2, concentration 2.5
  % inhibition T4 40': -9%
  % inhibition T4 90': -9%
DRC-2, concentration 40
  % inhibition T4 40': 31%

## COc1ccc(-c2n[nH]cc2Oc2ccc(Cl)cc2)c(O)c1 [KU0029837]
DRC-2, concentration 2.5
  % inhibition T4 10': -22%
  % inhibition T4 40': -22%
  % inhibition T4 90': -22%
  % inhibition T4 180': -26%
DRC-2, concentration 5
  % inhibition T4 10': -28%
  % inhibition T4 40': -28%
DRC-2, concentration 10
  % inhibition T4 10': -25%
  % inhibition T4 40': -25%
  % inhibition T4 90': -26%
  % inhibition T4 180': -30%
DRC-2, concentration 20
  % inhibition T4 10': -25%
  % inhibition T4 40': -25%
  % inhibition T4 90': -25%
  % inhibition T4 180': -30%
DRC-2, concentration 40
  % inhibition T4 10': -19%
  % inhibition T4 40': -19%
DRC-2, concentration 80
  % inhibition T4 10': -34%
  % inhibition T4 40': -34%
  % inhibition T4 90': -34%

## Cc1cccc2c(C(=O)NC(C)C)cc(N(C)C)nc12 [Molecule 47, CC(NC(=O)c1cc(nc2c1cccc2C)N(C)C)C]
DRC-2, concentration 20
  % inhibition T4 10': 28%
DRC-2, concentration 40
  % inhibition T4 10': 30%
  % inhibition T4 90': 31%
DRC-2, concentration 80
  % inhibition T4 10': 30%
  % inhibition T4 90': 31%
  % inhibition T4 180': 28%

## CCOC(=O)C1=C2c3cc(OC)c(OC)cc3CC(C)(C)N2C(=O)C1=O [KU0193659]
DRC-2, concentration 2.5
  % inhibition T4 10': 9%
  % inhibition T4 40': 9%
  % inhibition T4 90': 8%
  % inhibition T4 180': 9%
DRC-2, concentration 5
  % inhibition T4 10': 6.54%
  % inhibition T4 40': 6.54%
  % inhibition T4 180': 8%
DRC-2, concentration 10
  % inhibition T4 10': 23%
  % inhibition T4 40': 23%
DRC-2, concentration 20
  % inhibition T4 10': 29%
  % inhibition T4 40': 29%
DRC-2, concentration 40
  % inhibition T4 10': 38%
  % inhibition T4 40': 38%
  % inhibition T4 90': 37%
  % inhibition T4 180': 37%
DRC-2, concentration 80
  % inhibition T4 10': 45%
  % inhibition T4 40': 45%
  % inhibition T4 90': 44%
  % inhibition T4 180': 44%

## Cc1ccc(N2CCC(NC(=O)Cc3cccs3)C2=O)cc1C (centres unmarked) [Molecule 57, O=C(NC1CCN(C1=O)c1ccc(c(c1)C)C)Cc1cccs1]
DRC-1, concentration 2.5
  % inhibition T4 10' 2.5: -2.9635%
  % inhibition T4 70' 2.5: -3.783%
  % inhibition T4 130' 2.5: -5.326%
DRC-1, concentration 5
  % inhibition T4 10' 5: 6.066%
  % inhibition T4 70' 5: 0.9049%
  % inhibition T4 130' 5: -0.359%
DRC-1, concentration 10
  % inhibition T4 10' 10: 19.8361%
  % inhibition T4 70' 10: 15.0423%
  % inhibition T4 130' 10: 12.5508%
DRC-1, concentration 20
  % inhibition T4 10' 20: 23.1597%
  % inhibition T4 70' 20: 17.1422%
  % inhibition T4 130' 20: 13.7416%
DRC-1, concentration 40
  % inhibition T4 10' 40: 29.7521%
  % inhibition T4 70' 40: 24.1448%
  % inhibition T4 130' 40: 21.2189%
DRC-1, concentration 80
  % inhibition T4 10' 80: 29.7097%
  % inhibition T4 70' 80: 21.6253%
  % inhibition T4 130' 80: 19.4508%
DRC-2, concentration 2.5
  % inhibition T4 10' 2.5: 14%
  % inhibition T4 40' 2.5: 13%
  % inhibition T4 90' 2.5: 13%
  % inhibition T4 180' 2.5: 11%
DRC-2, concentration 5
  % inhibition T4 10' 5: 12%
  % inhibition T4 40' 5: 12%
  % inhibition T4 90' 5: 11%
  % inhibition T4 180' 5: 10%
DRC-2, concentration 10
  % inhibition T4 10' 10: 20%
  % inhibition T4 40' 10: 20%
  % inhibition T4 90' 10: 20%
  % inhibition T4 180' 10: 18%
DRC-2, concentration 20
  % inhibition T4 10' 20: 23%
  % inhibition T4 40' 20: 27%
  % inhibition T4 90' 20: 26%
  % inhibition T4 180' 20: 25%
DRC-2, concentration 40
  % inhibition T4 10' 40: 25%
  % inhibition T4 40' 40: 30%
  % inhibition T4 90' 40: 29%
  % inhibition T4 180' 40: 28%
DRC-2, concentration 80
  % inhibition T4 10' 80: 26%
  % inhibition T4 40' 80: 35%
  % inhibition T4 90' 80: 37%
  % inhibition T4 180' 80: 37%

## Cn1nc(-c2nc(-c3ccccc3)no2)c2c1CCN(C(=O)Cc1cccs1)C2 [Molecule 58, O=C(N1CCc2c(C1)c(nn2C)c1onc(n1)c1ccccc1)Cc1cccs1]
DRC-1, concentration 2.5
  % inhibition T4 10' 2.5: 2%
  % inhibition T4 70' 2.5: -0.863%
  % inhibition T4 130' 2.5: -2.41%
DRC-1, concentration 5
  % inhibition T4 10' 5: 6%
  % inhibition T4 70' 5: 0.684%
  % inhibition T4 130' 5: -0.486%
DRC-1, concentration 10
  % inhibition T4 10' 10: 20%
  % inhibition T4 70' 10: 13%
  % inhibition T4 130' 10: 9%
DRC-1, concentration 20
  % inhibition T4 10' 20: 24%
  % inhibition T4 70' 20: 17%
  % inhibition T4 130' 20: 14%
DRC-1, concentration 40
  % inhibition T4 10' 40: 35%
  % inhibition T4 70' 40: 26%
  % inhibition T4 130' 40: 24%
DRC-1, concentration 80
  % inhibition T4 10' 80: 33%
  % inhibition T4 70' 80: 37%
  % inhibition T4 130' 80: 33%
DRC-2, concentration 2.5
  % inhibition T4 10' 2.5: 2.64%
  % inhibition T4 40' 2.5: 2.18%
  % inhibition T4 90' 2.5: 2.76%
  % inhibition T4 180' 2.5: -1.52%
DRC-2, concentration 5
  % inhibition T4 10' 5: 8%
  % inhibition T4 40' 5: 6.41%
  % inhibition T4 90' 5: 7%
  % inhibition T4 180' 5: 1.9%
DRC-2, concentration 10
  % inhibition T4 10' 10: 17%
  % inhibition T4 40' 10: 17%
  % inhibition T4 90' 10: 17%
  % inhibition T4 180' 10: 13%
DRC-2, concentration 20
  % inhibition T4 10' 20: 20%
  % inhibition T4 40' 20: 22%
  % inhibition T4 90' 20: 21%
  % inhibition T4 180' 20: 15%
DRC-2, concentration 40
  % inhibition T4 10' 40: 23%
  % inhibition T4 40' 40: 27%
  % inhibition T4 90' 40: 24%
  % inhibition T4 180' 40: 20%
DRC-2, concentration 80
  % inhibition T4 10' 80: 20%
  % inhibition T4 40' 80: 25%
  % inhibition T4 90' 80: 22%
  % inhibition T4 180' 80: 20%

## O=C1N=C(Nc2cccc(Cl)c2Cl)S/C1=C\c1ccco1 [Molecule 3, O=C1N=C(S/C/1=C\c1ccco1)Nc1cccc(c1Cl)Cl]
DRC-2, concentration 2.5
  % inhibition T4 10': 26%
  % inhibition T4 40': 26%
DRC-2, concentration 5
  % inhibition T4 10': 29%
  % inhibition T4 40': 29%
  % inhibition T4 90': 27%
DRC-2, concentration 20
  % inhibition T4 10': 30%
  % inhibition T4 40': 30%
  % inhibition T4 90': 30%
  % inhibition T4 180': 27%
DRC-2, concentration 40
  % inhibition T4 10': 29%
  % inhibition T4 40': 29%
  % inhibition T4 90': 30%
  % inhibition T4 180': 30%
DRC-2, concentration 80
  % inhibition T4 10': 13%
  % inhibition T4 40': 13%
DRC-2, concentration 10
  % inhibition T4 180': 29%

## CCC(C)NC(=O)c1cc(NC(C)=O)cc2nc(C)ccc12 (centres unmarked) [KU0206314]
DRC-2, concentration 80
  % inhibition T4 10': 42%
  % inhibition T4 90': 42%
DRC-2, concentration 2.5
  % inhibition T4 90': 13%
DRC-2, concentration 5
  % inhibition T4 90': 13%

— publication PMC9090415, “Discovery of small molecule inhibitors of Plasmodium falciparum apicoplast DNA polymerase” (Journal of Enzyme Inhibition and Medicinal Chemistry, 2022)
